Results taken from patent publication US10202360B2 (CELGENE QUANTICEL RESEARCH, INC., priority 2016, dated 2019).

Molecular target: CREBBP (Homo sapiens (Human), UniProt Q92793)
Test: In vitro enzyme inhibition assay - CREBBP inhibition (AlphaScreen, biotinylated H4-tetraacetyl peptide)
Type: binding
Details: Table 28; AlphaScreen, H4-tetraacetyl peptide
Summary of the method: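 His-tagged CREBBP expressed in E. coli (50 nM final) incubated with biotinylated H4K5/8/12/16(Ac) peptide (20 nM final) in HEPES pH 7.3 buffer, 0.4% DMSO, 20 min at room temperature.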

CREBBP, sequence (Q92793 1081-1197): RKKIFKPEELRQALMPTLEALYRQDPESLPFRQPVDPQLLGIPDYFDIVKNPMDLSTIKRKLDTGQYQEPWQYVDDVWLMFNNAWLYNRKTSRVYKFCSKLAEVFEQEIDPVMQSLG

Compound | IC50 [nM]
CC[C@H](C)S(=O)(=O)Nc1cc(-c2ccc(=O)n(C)c2)nc(Oc2c(F)ccc(C)c2Cl)n1 [Example 224, (2S)-Butane-2-sulfonic acid [2-(2-chloro-6-fluoro-3-methyl-phenoxy)-6-(1-methyl-6-oxo-1,6-dihydro-pyridin-3-yl)-pyrimidin-4 yl]-amide] | < 500
CC[C@H](C)S(=O)(=O)Nc1cc(-c2ccc(=O)n(C)c2)nc(Oc2c(F)ccc(C)c2F)n1 [Example 225, (S)-N-(2-(2,6-difluoro-3-methylphenoxy)-6-(1-methyl-6-oxo-1,6-dihydropyridin-3-yl)pyrimidin-4-yl)butane-2-sulfonamide] | < 500
CC[C@H](C)S(=O)(=O)Nc1cc(-c2ccc(=O)n(C)c2)nc(Oc2c(Cl)ccc(C)c2F)n1 [Example 226, (S)-Butane-2-sulfonic acid [2-(6-chloro-2-fluoro-3-methyl-phenoxy)-6-(1-methyl-6-oxo-1,6-dihydro-pyridin-3-yl)-pyrimidin-4-yl]-amide] | < 500
CCC[C@H](C)S(=O)(=O)Nc1cc(-c2ccc(=O)n(C)c2)nc(Oc2c(Cl)ccc(C)c2F)n1 [Example 227, (2S)-Pentane-2-sulfonic acid [2-(6-chloro-2-fluoro-3-methyl-phenoxy)-6-(1-methyl-6-oxo-1,6-dihydro-pyridin-3-yl)-pyrimidin-4-yl]-amide] | < 500
CCC[C@H](C)S(=O)(=O)Nc1cc(-c2ccc(=O)n(C)c2)nc(Oc2c(F)ccc(C)c2Cl)n1 [Example 228, (2S)-Pentane-2-sulfonic acid [2-(2-chloro-6-fluoro-3-methyl-phenoxy)-6-(1-methyl-6-oxo-1,6-dihydro-pyridin-3-yl)-pyrimidin-4-yl]-amide] | < 500
Cn1cc(-c2cc(NS(=O)(=O)CCCC(F)(F)F)nc(Oc3c(F)cccc3Cl)n2)ccc1=O [Example 232, 4,4,4-Trifluoro-butane-1-sulfonic acid [2-(2-chloro-6-fluoro-phenoxy)-6-(1-methyl-6-oxo-1,6-dihydro-pyridin-3-yl)-pyrimidin-4-yl]-amide] | < 500
CCS(=O)(=O)Nc1cc(-c2ccc(=O)n(C)c2)nc(OC(C)C)n1 [Example 236, Ethanesulfonic acid [2-isopropoxy-6-(1-methyl-6-oxo-1,6-dihydro-pyridin-3-yl)-pyrimidin-4-yl]-amide] | < 500
CCCS(=O)(=O)Nc1cc(-c2ccc(=O)n(C)c2)nc(OC(C)C)n1 [Example 237, Propane-1-sulfonic acid [2-isopropoxy-6-(1-methyl-6-oxo-1,6-dihydro-pyridin-3-yl)-pyrimidin-4-yl]-amide] | < 500
CCCC(C)S(=O)(=O)Nc1cc(-c2ccc(=O)n(C)c2)nc(Oc2c(C)cccc2Cl)n1 (centres unmarked) [Example 243, Pentane-2-sulfonic acid [2-(2-chloro-6-methyl-pphenoxy)-6-(1-methyl-6-oxo-1,6-dihydro-pyridin-3-yl)-pyrimidin-4-yl]-amide] | < 500
CCCCS(=O)(=O)Nc1cc(-c2ccc(=O)n(C)c2)nc(OC2CCCCC2)n1 [Example 244, Butane-1-sulfonic acid [2-cyclohexyloxy-6-(1-methyl-6-oxo-1,6-dihydro-pyridin-3-yl)-pyrimidin-4-yl]-amide] | < 500
CCCS(=O)(=O)Nc1cc(-c2ccc(=O)n(C)c2)nc(OC2CCCCC2)n1 [Example 245, Propane-1-sulfonic acid [2-cylcohexyloxy-6-(1-methyl-6-oxo-1,6-dihydro-pyridin-3-yl)-pyrimidin-4-yl]-amide] | < 500
CCS(=O)(=O)Nc1cc(-c2ccc(=O)n(C)c2)nc(OC2CCCCC2)n1 [Example 246, Ethanesulfonic acid [2-cylcohexyloxy-6-(1-methyl-6-oxo-1,6-dihydro-pyridin-3-yl)-pyrimidin-4-yl]-amide] | < 500
CC(C)S(=O)(=O)Nc1cc(-c2ccc(=O)n(C)c2)nc(OC2CCCCC2)n1 [Example 247, Propane-2-sulfonic acid [2-cylcohexyloxy-6-(1-methyl-6-oxo-1,6-dihydro-pyridin-3-yl)-pyrimidin-4-yl]-amide] | < 500
CCCCS(=O)(=O)Nc1cc(-c2cc(C)c(=O)n(C)c2)nc(OC2CCCCC2)n1 [Example 249, Butane-1-sulfonic acid [2-cyclohexyloxy-6-(1,5-dimethyl-6-oxo-1,6-dihydro-pyridin-3-yl)-pyrimidin-4-yl]-amide] | < 500
Cc1cc(-c2cc(NS(=O)(=O)C(C)C)nc(OC3CCCCC3)n2)cn(C)c1=O [Example 250, Propane-2-sulfonic acid [2-cyclohexyloxy-6-(1,5-dimethyl-6-oxo-1,6-dihydro-pyridin-3-yl)-pyrimidin-4-yl]-amide] | < 500
Cc1cccc(Cl)c1Oc1nc(NS(=O)(=O)CCC(C)C)cc(-c2ccc(=O)n(C)c2)n1 [Example 252, 3-Methyl-butane-1-sulfonic acid [2-(2-chloro-6-methyl-phenoxy)-6-(1-methyl-6-oxo-1,6-dihydro-pyridin-3-yl)-pyrimidin-4-yl]-amide] | < 500
CCCCS(=O)(=O)Nc1cc(-c2ccc(=O)n(C)c2)nc(Oc2c(F)ccc(C)c2Cl)n1 [Example 255, Butane-1-sulfonic acid [2-(2-chloro-6-fluoro-3-methyl-phenoxy)-6-(1-methyl-6-oxo-1,6-dihydro-pyridin-3-yl)-pyrimidin-4-yl]-amide] | < 500

The next lines start with the values.

IC50 [nM] | Compound
< 500 | CC[C@H](C)S(=O)(=O)Nc1cc(-c2ccc(=O)n(C)c2)nc(Oc2c(F)cccc2F)n1 [Example 229, (S)-N-(2-(2,6-difluorophenoxy)-6-(1-methyl-6-oxo-1,6-dihydropyridin-3-yl)pyrimidin-4-yl)butane-2-sulfonamide]
< 500 | CC[C@@H](C)S(=O)(=O)Nc1cc(-c2ccc(=O)n(C)c2)nc(Oc2c(F)cccc2F)n1 [Example 230, (R)-N-(2-(2,6-difluorophenoxy)-6-(1-methyl-6-oxo-1,6-dihydropyridin-3-yl)pyrimidin-4-yl)butane-2-sulfonamide]
< 500 | Cn1cc(-c2cc(NS(=O)(=O)CCC(F)(F)F)nc(Oc3c(F)cccc3Cl)n2)ccc1=O [Example 231, 3,3,3-Trifluoro-propane-1-sulfonic acid [2-(2-chloro-6-fluoro-phenoxy)-6-(1-methyl-6-oxo-1,6-dihydro-pyridin-3-yl)-pyrimidin-4-yl]-amide]
< 500 | CCCCS(=O)(=O)Nc1cc(-c2ccc(=O)n(C)c2)nc(Oc2c(F)cccc2OC)n1 [Example 233, Butane-1-sulfonic acid [2-(2-fluoro-6-methoxy-phenoxy)-6-(1-methyl-6-oxo-1,6-dihydro-pyridin-3-yl)-pyrimidin-4-yl]-amide]
< 500 | COc1cccc(F)c1Oc1nc(NS(=O)(=O)C(C)C)cc(-c2ccc(=O)n(C)c2)n1 [Example 234, Propane-2-sulfonic acid [2-(2-fluoro-6-methoxy-phenoxy)-6-(1-methyl-6-oxo-1,6-dihydro-pyridin-3-yl)-pyrimidin-4-yl]-amide]
< 500 | CCCS(=O)(=O)Nc1cc(-c2ccc(=O)n(C)c2)nc(Oc2c(F)cccc2OC)n1 [Example 235, Propane-1-sulfonic acid [2-(2-fluoro-6-methoxy-phenoxy)-6-(1-methyl-6-oxo-1,6-dihydro-pyridin-3-yl)-pyrimidin-4-yl]-amide]
< 500 | CCS(=O)(=O)Nc1cc(-c2ccc(=O)n(C)c2)nc(Oc2c(F)cccc2C2CC2)n1 [Example 238, Ethanesulfonic acid [2-(2-cyclopropyl-6-fluoro-phenoxy)-6-(1-methyl-6-oxo-1,6-dihydro-pyridin-3-yl)-pyrimidin-4-yl]-amide]
< 500 | CCCS(=O)(=O)Nc1cc(-c2ccc(=O)n(C)c2)nc(Oc2c(F)cccc2C2CC2)n1 [Example 239, Propane-1-sulfonic acid [2-(2-cyclopropyl-6-fluoro-phenoxy)-6-(1-methyl-6-oxo-1,6-dihydro-pyridin-3-yl)-pyrimidin-4-yl]-amide]
< 500 | CCCCS(=O)(=O)Nc1cc(-c2ccc(=O)n(C)c2)nc(Oc2c(F)cccc2C2CC2)n1 [Example 240, Butane-1-sulfonic acid [2-(2-cyclopropyl-6-fluoro-phenoxy)-6-(1-methyl-6-oxo-1,6-dihydro-pyridin-3-yl)-pyrimidin-4-yl]-amide]
< 500 | CCCC(C)S(=O)(=O)Nc1cc(-c2ccc(=O)n(C)c2)nc(Oc2c(C)cccc2F)n1 (centres unmarked) [Example 241, Pentane-2-sulfonic acid [2-(2-fluoro-6-methyl-phenoxy)-6-(1-methyl-6-oxo-1,6-dihydro-pyridin-3-yl)-pyrimidin-4-yl]-amide]
< 500 | CCCC(C)S(=O)(=O)Nc1cc(-c2ccc(=O)n(C)c2)nc(Oc2c(F)cccc2Cl)n1 (centres unmarked) [Example 242, Pentane-2-sulfonic acid [2-(2-chloro-6-fluoro-phenoxy)-6-(1-methyl-6-oxo-1,6-dihydro-pyridin-3-yl)-pyrimidin-4-yl]-amide]
< 500 | Cc1cccc(F)c1Oc1nc(NS(=O)(=O)CCC(C)C)cc(-c2ccc(=O)n(C)c2)n1 [Example 248, 3-Methyl-butane-1-sulfonic acid [2-(2-fluoro-6-methyl-phenoxy)-6-(1-methyl-6-oxo-1,6-dihydro-pyridin-3-yl)-pyrimidin-4-yl]-amide]
< 500 | CC(C)CCS(=O)(=O)Nc1cc(-c2ccc(=O)n(C)c2)nc(Oc2c(F)cccc2Cl)n1 [Example 251, 3-Mehtyl-butane-1-sulfonic acid [2-(2-chloro-6-fluoro-phenoxy)-6-(1-methyl-6-oxo-1,6-dihydro-pyridin-3-yl)-pyrimidin-4-yl]-amide]
< 500 | CCC(CC)S(=O)(=O)Nc1cc(-c2ccc(=O)n(C)c2)nc(Oc2c(C)cccc2F)n1 [Example 253, Pentane-3-sulfonic acid [2-(2-fluoro-6-methyl-pphenoxy)-6-(1-methyl-6-oxo-1,6-dihydro-pyridin-3-yl)-pyrimidin-4-yl]-amide]
< 500 | CCC(CC)S(=O)(=O)Nc1cc(-c2ccc(=O)n(C)c2)nc(Oc2c(F)cccc2Cl)n1 [Example 254, Pentane-3-sulfonic acid [2-(2-chloro-6-fluoro-phenoxy)-6-(1-methyl-6-oxo-1,6-dihydro-pyridin-3-yl)-pyrimidin-4-yl]-amide]
